In the assay the target is T1, human red cone opsin (Homo sapiens, UniProt P04000).
T1 sequence (P04000 1-364): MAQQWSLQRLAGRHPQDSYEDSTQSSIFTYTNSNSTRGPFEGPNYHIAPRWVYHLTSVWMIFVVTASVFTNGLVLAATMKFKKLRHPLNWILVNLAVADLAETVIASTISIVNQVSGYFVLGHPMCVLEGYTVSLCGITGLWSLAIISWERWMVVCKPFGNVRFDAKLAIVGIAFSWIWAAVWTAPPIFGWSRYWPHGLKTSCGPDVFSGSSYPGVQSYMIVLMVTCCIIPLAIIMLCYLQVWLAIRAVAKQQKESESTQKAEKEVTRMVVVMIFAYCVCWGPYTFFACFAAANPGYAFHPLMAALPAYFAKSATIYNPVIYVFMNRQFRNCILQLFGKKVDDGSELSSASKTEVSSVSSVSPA
Nature of the assay: radioactive GTPγS filter binding, transducin activation. The format is biochemical. As to conditions: COS-1 membranes, bovine rod transducin, pH 6.4.

The structures appear in SMILES notation.

Take `CC(=O)/C=C/C1=C(C)CCCC1(C)C` [β-ionone]: the inverse agonist result is given as “these compounds were found to be inverse agonists to the red cone opsin”.
